Assay type in all cases: functional
Common to all, as to conditions: read-out: ED50 (the source's name)

The subject of assay [1] is A549. The assay can be described thus: Cytotoxicity against human A549 cells.
In assay [2] the test system is HT-29. The assay can be described thus: Cytotoxicity against human HT-29 cells.
In assay [3] the test system is MCF7. Put plainly: Cytotoxicity against human MCF7 cells.

Structures are written as SMILES. ≈ marks a conversion by molar mass, not a printed value.

On to `COc1cc([C@H]2OC[C@H](Cc3cc(OC)c(O)c(OC)c3)[C@@H]2CO)ccc1O` [JUSTICIRESINOL], for which the EC50 in assay [1] came to 31.3 µg/mL (≈ 80.2 µM); in assay [2], 18.3 µg/mL (≈ 46.9 µM); in assay [3] it was 22.3 µg/mL (≈ 57.1 µM).

(Values after ChEMBL document CHEMBL1150205, “Justiciresinol, a new furanoid lignan from Justicia glauca” (1991).)
